Consider 30 compounds from patent US20190241569A1, “3-(ARYL OR HETEROARYL) METHYLENEINDOLIN-2-ONE DERIVATIVES AS INHIBITORS OF CANCER STEM CELL PATHWAY KINASES FOR THE TREATMENT OF CANCER” (Boston Biomedical, Inc., priority 2013, published 2019).

What all share (format): cell-based
The test system of one experiment is ACHN. As to the kind of experiment: Bulk cancer cells, Cell Titer-Glo 72 hours (Test Example 2). Conditions: Homo sapiens, ACHN, 72 h. On the procedure:
(§1) Tubes of 3× drug (60 uM in 500 uL complete media) were prepared from 5 mM stock solutions in DMSO. […] To treat cells, 50 uL of drug from the dilution plate was removed and added to the cell plates. […] Cells were harvested 72 hours after drug addition using Cell Titer-Glo (Promega) and luminescence measured on a plate reader.
For orientation: Cellular ATP, detected with luciferase, serves as a proxy for viable cell number.

Another experiment deals with FaDu. The description is as above. Conditions: Homo sapiens. On the procedure: as §1
The next experiment deals with A549. The experiment is described as above. Conditions: Homo sapiens. On the procedure:
as §1

The subject of another experiment is FaDu CSC. As to the kind of experiment: Cancer stem cells, Cell Titer-Glo 72 hours (Test Example 3). The settings on record: Homo sapiens, FaDu, 72 h.
A further experiment concerns A549 CSC. The experiment is described as above. Conditions: Homo sapiens.

SMILES strings stand for the structures.

One may read the IC50 as the concentration at which inhibition is half-maximal. Low values mean greater potency, high ones weaker potency. Turning to `Cc1[nH]c(/C=C2\C(=O)Nc3ccc(-c4cnn(-c5ccccc5)c4)cc32)c(C)c1C(=O)N1CCN(C)CC1` [Example 6], the IC50 turned out to be 3.4 µM in the experiment with ACHN; 3.62 µM in the experiment on FaDu; 6.91 µM in the experiment on A549; 0.31 µM in the experiment on FaDu CSC; 4.49 µM in the experiment on A549 CSC.
Consider `Cc1[nH]c(/C=C2\C(=O)Nc3ccc(-c4cnn(-c5ccccn5)c4)cc32)c(C)c1C(=O)N1CCN(C)CC1` [Example 31], for which the IC50 is 3.67 µM with FaDu, 18.9 µM in the experiment with A549, 0.24 µM in the experiment on FaDu CSC and 11.7 µM with A549 CSC.
Regarding `CCN(CC)CCNC(=O)c1c(C)[nH]c(/C=C2\C(=O)Nc3ccc(C4CCN(c5ccccc5)CC4)cc32)c1C` [Example 42], the IC50 with FaDu was 1.89 µM; with A549 it was 16 µM; with FaDu CSC, 1.3 µM.
With `CCN(CC)CCNC(=O)c1c(C)[nH]c(/C=C2\C(=O)Nc3ccc(C4CCN(C5CCN(C(C)=O)CC5)CC4)cc32)c1C` [Example 45], the IC50 in the experiment with ACHN worked out at 4.8 µM; with FaDu, 3.32 µM; in the experiment with A549, 29.6 µM; in the experiment on FaDu CSC, 1 µM.
The like results for `CCN(CC)CCNC(=O)c1c(C)[nH]c(/C=C2\C(=O)Nc3ccc(-c4cn(-c5ccccc5)nn4)cc32)c1C` [Example 48] were, in that order, 4.73 µM, 6.74 µM, 4.88 µM and 2.9 µM.
Consider `CCN(CC)CCNC(=O)c1c(C)[nH]c(/C=C2\C(=O)Nc3ccc(-c4nnc(-c5ccccc5)s4)cc32)c1C` [Example 52], for which the values for the IC50 in the experiment on FaDu, in the experiment on A549 and in the experiment on FaDu CSC were 2.15 µM, 48.9 µM and 0.23 µM, respectively.
Consider `Cc1ccc(-c2nc(-c3ccc4c(c3)/C(=C/c3[nH]c(C)c(C(=O)N5CCN(C)CC5)c3C)C(=O)N4)cs2)cc1` [Example 104], for which the IC50 in the experiment on ACHN worked out at 4.25 µM; in the experiment with FaDu it was 7.87 µM; in the experiment with A549 it was 8.55 µM; with FaDu CSC it was 1.98 µM; in the experiment on A549 CSC it was 0.45 µM.
For `CCN(CC)CCNC(=O)c1ccc(/C=C2\C(=O)Nc3ccc(-c4csc(-c5ccccc5)n4)cc32)[nH]c1=O` [Example 121], the 50% inhibitory concentration (IC50) in the experiment on ACHN was 3.31 µM; in the experiment with FaDu, 3.1 µM; with A549, 3.64 µM; in the experiment with FaDu CSC, 6.15 µM.
As to `CCN(CC)CCNC(=O)c1c(C)[nH]c(/C=C2\C(=O)Nc3ccc(-c4csc(C5CCNC5)n4)cc32)c1C` (stereo not drawn) [Example 133], the IC50 stood at 6.75 µM in the experiment on ACHN, 2.42 µM with FaDu, 0.72 µM in the experiment on A549 and 32.5 µM with A549 CSC.
Consider `COC(=O)c1c(C)[nH]c(/C=C2\C(=O)Nc3ccc(-c4csc(-c5ccccc5)n4)cc32)c1C` [Example 141], for which the IC50 in the experiment on ACHN stood at 1.16 µM; with FaDu, 21.8 µM; in the experiment with A549 it was 16.3 µM.
For the compound `Cc1[nH]c(/C=C2\C(=O)Nc3ccc(-c4csc(-c5ccccc5)n4)cc32)c(C)c1CCC(=O)O` [Example 148], in the experiment on A549 CSC, the IC50 is 1.65 µM.
As for `O=C1Nc2ccc(-c3csc(-c4ccccc4)n3)cc2/C1=C/c1cnc[nH]1` [Example 151], the IC50 in the experiment with ACHN came out at 8.74 µM; in the experiment on FaDu, 6.14 µM; with A549, 11.2 µM; with FaDu CSC, 6.32 µM; in the experiment with A549 CSC it was 0.9 µM.
As to `O=C1Nc2ccc(-c3csc(-c4ccncc4)n3)cc2/C1=C/c1cc2c([nH]1)CCCC2` [Example 156], the IC50 with ACHN was 37.8 µM; in the experiment with A549 CSC, 0.8 µM.
As to `CCOC(=O)c1cc(C)c(/C=C2\C(=O)Nc3ccc(-c4csc(-c5ccccc5)n4)cc32)[nH]1` [Example 161], the IC50 with ACHN was 0.39 µM; with FaDu, 13.5 µM; in the experiment on A549, 40 µM; in the experiment on A549 CSC it was 13.2 µM.
As to `O=C1Nc2ccc(-c3csc(-c4ccncc4)n3)cc2/C1=C/c1ccc(N2CCNCC2)cc1` [Example 170], the IC50 with FaDu was found to be 25.2 µM; in the experiment with A549 it was 8.73 µM.
Taken in the same sequence, the figures for `O=C1Nc2ccc(-c3csc(-c4ccccc4)n3)cc2/C1=C/c1ccc(N2CCNCC2)cc1` [Example 171] were 2.59 µM and 5.79 µM.
With `CCN(CC)CCN1CCCc2[nH]c(/C=C3\C(=O)Nc4ccc(-c5csc(-c6ccccc6)n5)cc43)c(C)c2C1=O` [Example 176], the IC50 was found to be 5.31 µM in the experiment with FaDu and 18 µM in the experiment on A549.
On to `CCN(CC)CCNC(=O)c1c(C)[nH]c(/C=C2\C(=O)Nc3ccc(-c4cnc(-c5ccccc5)cn4)cc32)c1C` [Example 199], for which the IC50 in the experiment on ACHN was determined as 25.8 µM; in the experiment on FaDu, 17.5 µM; in the experiment with A549 it was 16.9 µM; in the experiment with FaDu CSC it was 39.1 µM; in the experiment with A549 CSC, 43.6 µM.
Consider `CCN(CC)CCNC(=O)c1c(C)[nH]c(/C=C2\C(=O)Nc3ccc(-c4cnc(SC)cn4)cc32)c1C` [Example 201], for which the IC50 with ACHN was found to be 12.3 µM; in the experiment with FaDu, 5.96 µM; in the experiment with A549, 6.06 µM; in the experiment with A549 CSC it was 30 µM.
`Cc1cc(C)c(/C=C2\C(=O)Nc3ccc(-c4cncnc4)cc32)[nH]1` [Example 212]: the figures for the IC50 in the experiment on ACHN and with A549 were 12.8 µM and 20.8 µM, respectively.
Consider `Cc1cc(C)c(/C=C2\C(=O)Nc3ccc(-c4cnc5ccccc5n4)cc32)[nH]1` [Example 217], for which the IC50 came out at 10.6 µM in the experiment with ACHN, 25.8 µM with FaDu, 7.89 µM with A549 and 0.09 µM in the experiment on FaDu CSC.
Turning to `Cc1cc(C)c(/C=C2\C(=O)Nc3ccc(-c4nccc5ccccc45)cc32)[nH]1` [Example 219], the IC50 with FaDu worked out at 23.5 µM; in the experiment on A549 it was 18.4 µM.
For `Cc1cc(C)c(/C=C2\C(=O)Nc3ccc(-c4cc(-c5ccccc5)ccn4)cc32)[nH]1` [Example 223], the IC50 worked out at 22.4 µM with FaDu, 13.8 µM in the experiment on A549 and 35.7 µM in the experiment with A549 CSC.
Take `Cc1cc(C)c(/C=C2\C(=O)Nc3ccc(-c4cnc5ccccn45)cc32)[nH]1` [Example 224]: the IC50 was 25.2 µM with ACHN; 11.4 µM in the experiment on FaDu; 16.6 µM in the experiment with A549; 17 µM in the experiment with FaDu CSC; 20.2 µM with A549 CSC.
The like results for `Cc1cc(C)c(/C=C2\C(=O)Nc3ccc(-c4csc(-n5cccn5)n4)cc32)[nH]1` [Example 232] were, in that order, 9 µM, 20.8 µM, 9.76 µM, 27.2 µM and 16.2 µM.
As to `Cc1cc(C)c(/C=C2\C(=O)Nc3ccc(-c4cnc5cccnn45)cc32)[nH]1` [Example 234], the IC50 worked out at 5.23 µM in the experiment on FaDu, 12.5 µM with A549, 1.55 µM in the experiment with FaDu CSC and 8.66 µM in the experiment on A549 CSC.
Regarding `Cc1cc(C)c(/C=C2\C(=O)Nc3ccc(-c4nc5ccccc5s4)cc32)[nH]1` [Example 235], the figures for the IC50 in the experiment on ACHN, with FaDu and in the experiment with A549 were 14.7 µM, 26.8 µM and 16.1 µM, respectively.
For `Cc1cc(C)c(/C=C2\C(=O)Nc3ccc(-c4ncccn4)cc32)[nH]1` [Example 236], the IC50 is 25.3 µM in the experiment on ACHN, 26.1 µM in the experiment on FaDu, 25.2 µM in the experiment on FaDu CSC and 28.7 µM in the experiment on A549 CSC.
`Cc1cc(C)c(/C=C2\C(=O)Nc3cc(-c4ccncc4)ccc32)[nH]1` [Example 250]: the IC50 in the experiment on FaDu was determined as 18.4 µM; in the experiment with A549 CSC, 0.98 µM.
On to `Cc1cc(C)c(/C=C2\C(=O)Nc3ccc(-c4ccc(C=O)cc4)cc32)[nH]1` [Example 262], for which the IC50 is 26.8 µM in the experiment with FaDu and 29.2 µM in the experiment on A549.
